Laboratory results from patent publication US6670384B2, “Methods of administering epothilone analogs for the treatment of cancer” (Bristol-Myers Squibb Company, priority 2001, dated 2003).
Read-outs that look alike come from different tables or passages of the source.

Assays:
[1] = Dose escalation study of weekly IV Compound II in cancer patients (MTD, dose limiting toxicity); assay type: in vivo, human; conditions: 30 minute IV infusion every week
Text: (§1) A total of 24 cancer patients (12 male and 12 female) received compound II by IV administration to evaluate the maximum tolerated dose (MTD), the dose limiting toxicity (DLT), the pharmacokinitics and pharmacodynamics, and to evaluate the anti-tumor activity of compound II. The median age (range) of the patients was 57 (34-74). 5 patients had breast cancer, 5 patients had head and neck cancer, 2 patients had sarcoma, 2 patients had colorectal cancer, 2 patients had UPT cancer, 2 patients had melanoma, 2 patients had cancer of the esophagus, 1 patient had renal cancer, 1 patient had cervical cancer, 1 patient had thyroid cancer, and 1 patient had anal cancer. 21 patients had received prior chemotherapy (18 patients received neurotoxic agents and 18 patients received radiotherapy). The median number of prior chemotherapy lines including adjuvant (range) was 2 (1-3).
Patients were orally administered compound II on day 1 (for dose levels of 20 mg/m^2 and higher) followed by a 30 minute IV infusion of compound II every week starting on day 7. Patients were administered compound II at doses of 1, 2.5, 5, 10, 20, 25, and 30 mg/m^2.

[2] = system: colon tumors; experiment: Anti-tumor response in previously treated cancer patients, colon tumors; assay type: in vivo, human; conditions: metastatic colon cancer patients previously treated with chemotherapy
Text: as §1
(§2) In a second study a total of 12 cancer patients (5 male and 7 female) were orally administered compound II on day 1 followed by a 30 minute IV infusion of compound II every week starting on day 7 at a dose of 25 mg/m^2 to evaluate neurotoxicity of compound II. The median age (range) of the patients was 51 (30-65). 4 patients had colorectal cancer, 3 patients had breast cancer, 2 patients had melanoma, 1 patient had renal cancer, 1 patient had sarcoma, and 1 patient had ovary cancer. […]

[3] = Stability of the drug during dissolution in tertiary butanol/water and lyophilization; assay type: physicochemical; conditions: tertiary butanol/Water for Injection 1:1 at 5 EC, lyophilized at −16 EC 48 hours, dried at 15 EC 48 hours, light protected
Procedure: [1S-[1R*,3R*(E),7R*,10S*,11R*,12R*,16S*]]-7,11-Dihydroxy-8,8,10,12,16-pentamethyl-3-[1-methyl-2-(2-methyl-4-thiazolyl)ethenyl]-4-aza-17-oxabicyclo[14.1.0]heptadecane-5,9-dione, 9.86 g, was wetted/partially dissolved with 600 mL of a 9:1 mixture of tertiary butanol and Water for Injection USP which had been pre-cooled to 5 EC. Once the drug powder had become completely wetted, dissolution was completed by the addition of 600 mL of a 1:9 mixture of tertiary butanol and Water for Injection and 766 mL of a 1:1 mixture of tertiary butanol and Water for Injection which likewise had been pre-cooled to 5 EC thereby making the final solution a 1:1 mixture. The dissolution was carried out under protection from light.
The solution formed above was promptly lyophilized in a Virtis INOTOP lyophilizer at −16 EC under light protectant conditions over a period of 48 hours. The resultant lyophilized product (lyophile) was then further dried at 15 EC under high vacuum for 48 hours. […] The lyophile was packaged under sterile conditions into 30 mL vials, each containing 10 mg of drug and standard excess to allow for vial/needle/syringe loss.

[4] = Pharmacokinetics of Compound II given orally and intravenously to cancer patients (plasma, LC/MS/MS); assay type: in vivo, human; conditions: for Tmax / Cmax / bioavailability: human, plasma; for bioavailability: read-out: % F (absolute bioavailability)
Procedure: Patients with Advanced Malignancies were administered Compound II weekly as a 30-minute infusion (a course=3 intravenous weekly administrations). Patients received doses of 1, 2.5, 5, 10, 20, 25, or 30 mg/m^2. […] The dose of oral Compound II administered on Day 6 matched the dose of IV Compound II administered on day 1. Serial plasma sampling was obtained on day 6 and day 1 of course 1 to assess pharmacokinetics by an LC/MS/MS.
Samples were analyzed by adding an internal standard to 0.2 mL of plasma sample, precipitating with acetone, and then extracting the supernatant with 1-chlorobutane. The organic layer was removed and evaporated to dryness. The residue was reconstituted and injected into the LC/MS/MS system. Chromatographic separation was achieved, isocratically, on a YMC ODS-AQ column (4.6×50 mm, 3:m) with a mobile phase of acetonitrile:0.01M ammonium acetate, pH 5.0 (65:35). Detection was by negative electrospray tandem mass spectrometry. The standard curve, which ranged from 2 to 500 ng/mL for all analytes and was fitted to a 1/x weighted quadratic regression model.
The propylene glycol/ethanol mixture was prepared by mixing 80 parts by volume of propylene glycol and 20 parts by volume of ethanol in a suitable container and gently swirling the container until the solution was completely mixed.
Buffer for use with Compound II was constituted with water for injection (WFI).
Compound II was prepared for administration to patients by using a suitable syringe to slowly inject 2.5, 5, or 10 mL of the propylene glycol/ethanol mixture into the 20 cc vial containing 25 mg/vial of Compound II, to give concentrations of 10, 5, or 2.5 mg/mL, respectively, depending on the dose to be administered to the patient. The syringe was removed and the vial shaken vigorously for 10 seconds. The vial was placed in a sonication bath and sonicated until the solution became clear. Vials were pooled depending on the dose.
The bottle was shaken vigorously or sonicated with intermittent shaking until a clear solution was obtained.
Following oral administration on day 6, 7 mL blood samples was collected into Becton Dickinson Vacutainer tubes with K3EDTA as anticoagulent (lavender-colored top) according to the following schedule (expressed as hours:minutes from the start of the oral administration): predose, 00:15, 00:30, 00:45, 1:00, 1:30, 2:00, 3:00, 4:00, 6:00, 8:00, 24:00, 48:00, and 72:00. Following IV administration on day 1, 7 mL blood samples were collected into Becton Dickinson Vacutainer tubes with K3EDTA as anticoagulent (lavender-colored top) according to the following schedule (expressed as hours:minutes from the start of the IV infusion):predose, 00:15, 00:30 (end-of infusion), 00:45, 1:00, 1:30, 2:00, 3:00, 4:00, 6:00, 8:00, 24:00, 48:00, and 72:00.
Immediately after blood collection, the Vacutainer tubes were inverted several times to ensure mixing with the anticoagulant and then immediately placed on crushed ice. Within 30 minutes of collection, samples were centrifuged for 5 minutes at approximately 2000×g and 0 to 5 EC. The plasma was then transferred to separate pre-labeled screw-capped polypropylene tubes and stored at −70 EC until bioanalysis. Plasma concentrations of Compound II were analyzed using the LC/MS/MS assay.
The plasma concentration versus time data were analyzed using non-compartmental methods. The pharmacokinetic parameters determined for Compound II included the maximum observed plasma concentration (Cmax), time to reach Cmax (Tmax), area under the plasma concentration time curve from time zero to the time of last sampling time T(AUC(0-T)).
A total of 18 patients have received oral Compound II as a solution on day 6 and by IV on day 1.

[5] = system: breast tumors; experiment: Anti-tumor response in previously treated cancer patients, breast tumors; assay type: in vivo, human; conditions: breast cancer patients previously treated with chemotherapy
Text: as §1, §2

C/C(=C\c1csc(C)n1)C1C[C@@H]2O[C@]2(C)CCC[C@H](C)[C@H](O)[C@@H](C)C(=O)C(C)(C)[C@@H](O)CC(=O)N1 (relative stereo) [Compound II, [1S-[1R*,3R*(E),7R*,10S*,11R*, 12R*,16S*,]]-7,11-Dihydroxy-8,8,10,12,16-pentamethyl-3-[1-methyl-2-(2-methyl-4-thiazolyl)ethenyl]-4-aza-7-oxabicyclo[14.1.0]heptadecane-5,9-dione]
weekly dose administered without severe toxicity being observed [1]: up to 30 mg/m^2 | tumor response to treatment [2]: responded | degradation of the drug during dissolution, lyophilization and drying [3]: No detectable degradation | AUC(0-T) ([4]; 20 mg/m^2, IV, patients N=3, mean): 796 H · ng/mL | AUC(0-T) ([4]; 20 mg/m^2, oral solution, patients N=3, mean): 404 H · ng/mL | AUC(0-T) ([4]; 25 mg/m^2, IV, patients N=11, mean): 848 H · ng/mL | AUC(0-T) ([4]; 25 mg/m^2, oral solution, patients N=11, mean): 533 H · ng/mL | AUC(0-T) ([4]; 30 mg/m^2, IV, patients N=4, mean): 1155 H · ng/mL | AUC(0-T) ([4]; 30 mg/m^2, oral solution, patients N=4, mean): 708 H · ng/mL | Tmax ([4]; 20 mg/m2, 20 mg/m^2, IV, patients N=3, median): 15 min | Cmax ([4]; 20 mg/m2, 20 mg/m^2, oral solution, patients N=3, mean): 142 ng/mL | Tmax ([4]; 20 mg/m2, 20 mg/m^2, oral solution, patients N=3, median): 60 min | Tmax ([4]; 25 mg/m2, 25 mg/m^2, IV, patients N=11, median): 30 min | Cmax ([4]; 25 mg/m2, 25 mg/m^2, oral solution, patients N=11, mean): 180 ng/mL | Tmax ([4]; 25 mg/m2, 25 mg/m^2, oral solution, patients N=11, median): 30 min | Tmax ([4]; 30 mg/m2, 30 mg/m^2, IV, patients N=4, median): 30 min | Cmax ([4]; 30 mg/m2, 30 mg/m^2, oral solution, patients N=4, mean): 274 ng/mL | Tmax ([4]; 30 mg/m2, 30 mg/m^2, oral solution, patients N=4, median): 30 min | Cmax ([4]; 20 mg/m^2, IV 30-minute infusion, patients N=3, mean): 251 ng/mL | bioavailability ([4]; 20 mg/m^2, oral solution vs IV, patients N=3, mean): 43.5% | Cmax ([4]; 25 mg/m^2, IV 30-minute infusion, patients N=11, mean): 447 ng/mL | bioavailability ([4]; 25 mg/m^2, oral solution vs IV, patients N=11, mean): 55.6% | Cmax ([4]; 30 mg/m^2, IV 30-minute infusion, patients N=4, mean): 711 ng/mL | bioavailability ([4]; 30 mg/m^2, oral solution vs IV, patients N=4, mean): 62.2% | tumor response to treatment [5]: responded
